Results taken from patent publication US9546201B2, “MUC-1 cytoplasmic domain peptides as inhibitors of cancer” (DANA-FARBER CANCER INSTITUTE, INC., priority 2008, dated 2017).
Where no end group is shown, it is not given here. [ ]: non-standard residue; d: D form.

Columns and labels:
[1] = system: H-1975 non-small cell lung carcinoma cell line; conditions: 5 μM, 3 days
Method: H-1975 non-small cell lung carcinoma cell line was grown in DMEM with 10% heat-inactivated fetal bovine serum with 100 units/mL penicillin, 100 μg/ml streptomycin and 2 mmol/L L-glutamine. Cells were re-seeded one day before treatments. Cells were treated with 5 μM GO-200-2B for 3 days and cell viability was determined by trypan blue exclusion. Y-axis represents percent viability as compared to control untreated cells.
H1975 non-small cell lung carcinoma cells were treated with 5 μM of different MUC1-CD CQC-region peptides for 6 days. Viable cell number on day 6 was determined by trypan blue exclusion. […] Y-axis represents relative growth as compared to control untreated cells.
Moreover, another non-small cell lung carcinoma cell line, H-1975, was treated with 5 μM GO-200-2B for 3 days and monitored for cell growth as well as cell death.
Multiple tumor cell lines (ZR-75-1 Hormone-dependent Breast Carcinoma; MDA-MB-231 Triple-Negative Breast Carcinoma; A549 Non-small Cell Lung Carcinoma; H-1975 Non-small Cell Lung Carcinoma) were grown in RPMI-1640 supplemented with 10% heat-inactivated fetal bovine serum, 100 units/mL penicillin and 100 μg/mL streptomycin and 2 mmol/L L-glutamine. […] The proliferation of different cell lines was compared with cells treated with vehicle only.

[2] = system: ZR-75-1 breast carcinoma cells; experiment: ZR-75-1 proliferation with GO-203 analogs (trypan blue exclusion); assay type: cell-based, human; conditions: 5 μM every day for 4 days
Method: FIG. 10. Effect of different MUC1-CD CQC-region peptides on the growth of hormone-dependent breast carcinoma cells. To determine whether exposure to different MUC1-CD CQC-region containing peptides affect growth, ZR-75-1 breast carcinoma cells were treated with 5 μM of different peptides for 4 days and monitored for cell proliferation. […] Y-axis represents percent growth inhibition as compared to control untreated cells.
FIG. 14. Effect of Shorter GO-203 peptides on proliferation of ZR-75-1 Breast Cancer Cells. Human ZR-75-1 breast cancer cells were grown in RPMI1640 supplemented with 10% heat-inactivated fetal bovine serum, 100 units/ml penicillin, 100 μg/ml streptomycin. Cells were treated with different peptides at 5 μM every day for four days and cell viability was determined by trypan blue exclusion.
Multiple tumor cell lines (ZR-75-1 Hormone-dependent Breast Carcinoma; MDA-MB-231 Triple-Negative Breast Carcinoma; A549 Non-small Cell Lung Carcinoma; H-1975 Non-small Cell Lung Carcinoma) were grown in RPMI-1640 supplemented with 10% heat-inactivated fetal bovine serum, 100 units/mL penicillin and 100 μg/mL streptomycin and 2 mmol/L L-glutamine. Cells were treated separately with 5 μM of different analogs of GO-203 (FIG. 8) for 3 to 7 days and viability was determined by trypan blue exclusion. The proliferation of different cell lines was compared with cells treated with vehicle only.

[3] = system: DU145 prostate carcinoma cells; experiment: DU145 cell growth by MTT assay; assay type: cell-based; conditions: 5 μM, 4 days (FIG. 7)
Method: FIG. 7. MUC1 7-mer inhibits prostate carcinoma. DU145 prostate carcinoma cells were treated with 5 μM CQC short (7-mer; SEQ ID NO: 53) or 5 μM CQC long (15-mer; SEQ ID NO: 63) peptides for 4 days. Cell growth was measured by MTT assay. The Y-axis represents percent growth inhibition compared to untreated cells (control).

[4] = system: multiple carcinoma cell lines; experiment: Inventors' recent studies of MUC1 C-terminal peptides on carcinoma cell lines; assay type: cell-based; conditions: L-amino acid peptide
Excerpt: However, these MUC1-C-terminal peptides consists of L-amino acids. […] Consequently, they have generated an all-dextro form of the above described shorter MUC1 C-terminal peptide, in which the L-amino acids were changed to D-amino acids (GO-203). Moreover, to determine the minimum amino acid residues from the MUC1-C-terminal region that are required to retain the cell killing activity, they have also generated many different versions of GO-203 as described in FIG. 8.

ZR-75-1 cells = experiment: In vitro cytotoxicity and combination assays (MTS, CombiTool combination index); assay type: cell-based, human
Method: FIGS. 15A-D. Effects of GO-203 in combination with different anti-cancer drugs. ZR-75-1 cells were exposed to the indicated concentrations of Cisplatin (FIG. 15A), Doxorubicin (FIG. 15B), rh-TNF-α (FIG. 15C) and Taxol (FIG. 15D) alone and in combination with GO-203. The treatment was sequential for Cisplatin, Doxorubicin and Taxol where cells were exposed to these agents for 72 h followed by treatment with 5 μM of GO-203 for 72 h. In studies with rh-TNF, cells were exposed concomitantly to different concentrations of rh-TNF alone and in combination with 5 μM of GO-203 for 72 h. The MTS assay was used to determine the cell survival. For all panels, the Y-axis represents percent growth as compared to control untreated cells.
FIG. 16. GO-203 is additive or synergistic with anti-cancer agents. The plots show combination indexes against different effect levels (fraction affected). The effect level was obtained by treating cells with the indicated combinations of anti-cancer drugs and GO-203. Y-axis represents—fold growth as compared to control untreated cells.
Cells were seeded in a 96-well flat-bottomed microtiter plate (Fisher) at 1000 cells per well for a 6-day experiment or at 3000 cells per well for a 3-day experiment. The cells were then cultured for 24 h. Anti-cancer drugs and GO-203 were diluted to the indicated concentrations and added to the cells. GO-203 (5 μmol/L) was added every 24 h for 72 h. Cell viability was determined by adding MTS reagent to the cells and reading the absorbance at 490 nm by a microplate reader.
The IC50 values for all the anti-cancer drugs were determined by non-linear regression analysis using Graphpad Prism (GraphPad Software, San Diego Calif.). The CombiTool computer program (version 2.001, IMB Jena Biocomputing Group) was used to calculate the combination index within a dose range in the presence of 5 μmol/L GO-203.
The combination index (CI) values generated by the CombiTool program were plotted against the fraction affected by the drug combination. The CI values were close to 1 for Cisplatin and GO-203, indicating an additive interaction. The CI values obtained for Doxorubicin (25, 50, 100, 200 nM), Taxol (25, 50, 100 nM) and TNF (10, 20, 40 ng/ml) with GO-203 were less than 1, supporting a strong additive effect or synergism (FIGS. 15A-D and 16).

His-MUC1-CD = target: T1, His-MUC1-CD (Homo sapiens, UniProt P15941); conditions: BIAcore analysis, Leng et al., 2007; read-out: dissociation constant (Kd) of MUC1-CD dimers; cited from earlier work
T1 sequence (P15941 1184-1255): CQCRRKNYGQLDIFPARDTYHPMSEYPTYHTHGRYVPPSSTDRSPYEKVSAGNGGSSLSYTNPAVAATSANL

## CC(=O)N[C@@H](C)C(=O)N[C@@H](CCCCN)C(=O)N[C@@H](CCCCN)C(=O)N[C@@H](Cc1ccc(O)cc1)C(=O)N[C@@H](CC(C)C)C(=O)N[C@@]1(C)CCCC=CCCCC2(CCCC=CCCC[C@@](C)(C(=O)N[C@@H](CCCNC(=N)N)C(=O)N[C@@H](CCCCN)C(=O)N[C@@H](CC(N)=O)C(=O)N[C@@H](Cc3ccc(O)cc3)C(N)=O)NC(=O)[C@H](CS)NC(=O)[C@H](CCC(N)=O)NC(=O)[C@H](CS)NC2=O)NC(=O)[C@H](C)NC(=O)[C@H](CC(C)C)NC(=O)[C@H](C)NC1=O (stereo partly drawn) [GO-200-2B]
[1]
  cell death: significant induction of cell death

## GO-207: shorter GO-203 peptide, SEQ ID NO:4 (CQCRRK)
[2]
  growth of ZR-75-1 cells: significant inhibition of growth

## MUC1/CQC 7-mer: shorter MUC1-C-terminal peptide CQCRRKN of L-amino acids (7-mer; SEQ ID NO: 53)
[3]
  in vitro activity relative to the 15-mer: as potent as the MUC1/CQC 15-mer
[4]
  killing of tumor cells: active in killing tumor cells

## GO-203: all-dextro form of the shorter MUC1 C-terminal peptide CQCRRKN (SEQ ID NO:53) ([dC][dQ][dC][dR][dR][dK][dN]; cysteine pairing not given here)
[2]
  growth of ZR-75-1 cells: significant inhibition of growth
ZR-75-1 cells; Cisplatin 72 h followed by 5 μM GO-203 for 72 h
  combination index (CI) with Cisplatin: ~1
ZR-75-1 cells; Doxorubicin 25, 50, 100, 200 nM, followed by 5 μM GO-203
  combination index (CI) with Doxorubicin: less than 1
ZR-75-1 cells; Taxol 25, 50, 100 nM, followed by 5 μM GO-203
  combination index (CI) with Taxol: less than 1
ZR-75-1 cells; rh-TNF 10, 20, 40 ng/ml concomitantly with 5 μM GO-203 for 72 h
  combination index (CI) with TNF: less than 1

## MUC1-CD: 72-amino acid MUC1 cytoplasmic domain (SEQ ID NO:1); forms dimers
His-MUC1-CD
  Kd: 33 nM

## GO-209: shorter GO-203 peptide, SEQ ID NO:54 (CQCR)
[2]
  growth of ZR-75-1 cells: significant inhibition of growth

## GO-208: shorter GO-203 peptide, SEQ ID NO:50 (CQCRR)
[2]
  growth of ZR-75-1 cells: significant inhibition of growth
